Structures can show the parent of a compound that is named as a salt. Where two headings read alike, the source gives them in different places.
Experiments:
h5-HT6R [1] = target: T1, h5-HT6R (Homo sapiens, UniProt P50406); experiment: Inhibition of 5-CT-induced cAMP production in 1321N1 cells expressing h5-HT6R; assay type: cell-based; set-up: host or cells: 1321N1; conditions: for Kb: cAMP; for antagonist effect: 10^–6 M, percent inhibition of control agonist response
5-HT3R = target: T2, 5-HT3R (Cavia porcellus, UniProt O70212); conditions: for functional classification at 5-HT3R: guinea pig ileum contraction; for antagonist effect: percent inhibition of response to 5-HT 3 μM (contraction of guinea pig ileum)
T2 sequence (O70212 20-490): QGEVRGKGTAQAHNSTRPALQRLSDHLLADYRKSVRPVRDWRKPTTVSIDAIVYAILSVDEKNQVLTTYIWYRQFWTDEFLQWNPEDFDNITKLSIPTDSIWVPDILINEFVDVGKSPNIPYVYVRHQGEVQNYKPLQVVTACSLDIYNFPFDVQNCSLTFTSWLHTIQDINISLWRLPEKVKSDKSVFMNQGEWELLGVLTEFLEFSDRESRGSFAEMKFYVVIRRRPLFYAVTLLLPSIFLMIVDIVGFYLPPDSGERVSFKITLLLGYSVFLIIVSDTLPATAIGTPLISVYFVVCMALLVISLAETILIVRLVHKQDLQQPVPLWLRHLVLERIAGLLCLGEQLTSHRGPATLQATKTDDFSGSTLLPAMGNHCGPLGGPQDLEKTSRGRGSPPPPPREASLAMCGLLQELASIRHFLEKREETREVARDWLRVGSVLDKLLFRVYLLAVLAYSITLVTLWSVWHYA
Procedure: Isolated guinea pig ileum was employed to test the affinity and the intrinsic activity of the investigated compounds for 5-HT3 receptors. […] A 15 cm ileum segment was excised from the small intestine of male guinea pigs and immersed into a Krebs solution (NaCl 120 mM, KCl 5.6 mM, MgCl2 2.2 mM, CaCl2 2.4 mM, NaHCO3 19 mM, glucose 10 mM). After the first 5 cm length closest to the ileocaecal junction had been discarded 2 cm-long fragments were cut. Each segment of the ileum was placed in a 20 mL chamber of tissue organ bath system (Tissue Organ Bath System – 750 TOBS, DMT, Denmark) filled with the Krebs solution at 37° C, pH 7.4, with constant oxygenation (O2/CO2, 19:1), fixed by the lower end to a rod and by the upper end to the force–displacement transducer. The preparation was allowed to stabilize in organ baths for 60 min under a resting tension of 0.5 g, washing every 15 min with fresh Krebs solution. After the equilibration period, a cumulative concentration–response curve was constructed in each tissue for 5-HT (10 nM – 10 μM) by the method of van Rossum.[64] […] Selected compounds were tested using an additional method. After establishment of the first 5-HT concentration–response curve, washing out of the tissue, and stabilization period, the same tissues were subsequently incubated with one of the concentrations of the tested compound for 15 min and the next cumulative concentration curve to 5-HT was obtained. Only one concentration of a studied compound was tested in each piece of tissue.

h5-HT6R [2] = target: T1, h5-HT6R
Procedure: (§1) For membrane preparation, cells after reaching 90% confluence, were washed with phosphate-buffered saline (PBS), and pelleted by centrifugation (200 × g) in PBS containing 0.1 mM EDTA and 1 mM dithiothreitol.
(§2) The total reaction volume was 200 μL. The incubation process was terminated by filtration through UniFilter-96 (PerkinElmer) plates with the FilterMate Universal Harvester (PerkinElmer, #C961962), and radioactivity retained on the filters was quantified on a MicroBeta counter for radiometric detection (PerkinElmer). […] To evaluate the level of nonspecific signal 10 μM of 5-HT for 5-HT1AR and 5-HT7R, 20 μM of mianserin for 5-HT2AR, 10 μM of methiothepine for 5-HT6R and 10 μM of haloperidol for D2LR were used. […] The acquired results were presented as the mean of at least two independent experiments.

h5-HT7b = h5-HT7b (Homo sapiens, UniProt P34969); conditions: 5-HT7R
Procedure: as §1, §2

hD2L = hD2L (Homo sapiens, UniProt P14416); conditions: D2R
Procedure: as §1, §2

h5-HT2AR = h5-HT2AR (Homo sapiens, UniProt P28223); conditions: 5-HT2AR
Procedure: as §1, §2

h5-HT1A = h5-HT1A (Homo sapiens, UniProt P08908); conditions: 5-HT1AR
Procedure: as §1, §2

male Sprague–Dawley rats [3] = conditions: AUC −25 to 0 min before PCP
Procedure: (§3) Both spontaneous and PCP-induced locomotor activity were measured automatically in Opto-Varimex-4 Auto-Tracks (Columbus Instruments, Ohio) located in sound-attenuated and ventilated boxes. The Auto-Track System sensed the motion with a grid of infrared photocells (16 beams per axis) surrounding the arena.
(§4) Following 30 min of spontaneous activity measurement, the animals were removed from the boxes, injected with phencyclidine hydrochloride (PCP) at a dose of 5 mg/kg (SC), and then PCP-induced locomotor activity was measured for 120 min.
(§5) The measurements (30 min) preceding PCP administration indicate drug-induced effects on spontaneous locomotor activity. The second period (measured in the same animals at 0-120 min following PCP administration) indicates drug-induced alteration of PCP-induced hyperactivity.
(§6) Mixed-design two-way ANOVA with treatment(s) as between-subject factor and time as repeated measures factor on raw distance data, and separate one-way or two-way ANOVAs (on AUC data) followed by Dunnett’s multiple comparison, LSD or Tukey’s post hoc tests as well as analyses of contrast coefficients (Statistica 12 for Windows, IBM SPSS ver 26 for Mac) were used to assess the effects of compounds on activity.

male Sprague–Dawley rats [4] = tested on: male Sprague–Dawley rats
Procedure: as §3, §4, §5, §6

h5-HT3R = h5-HT3R (Homo sapiens, UniProt P46098); conditions: inhibition of inward currents in response to 5-HT (EC80)
Procedure: All recordings were obtained from a holding potential of -60 mV. To establish the baseline response, serotonin was added at the concentration corresponding to its EC80 value. Subsequently, the test compound was characterized in a dose–response protocol at the concentration ranges from 10^–6 to 10^–11 M, with 30 s preincubation, followed by the addition of 5-HT at its EC80 in the presence of the compound for 2 s.
Peak inward currents were measured in response to the serotonin additions in the presence of a single concentration of the compound. Obtained data have been normalized to the baseline peak current induced by the addition of EC80 serotonin for 2 s, according to eq 1 [drawing 4] 1 Received data were analyzed using a four-parameter logistic equation in GraphPad Prism software.

[5] = HEK cells stably expressing h5-HT6R

T1 sequence (P50406 whole entry): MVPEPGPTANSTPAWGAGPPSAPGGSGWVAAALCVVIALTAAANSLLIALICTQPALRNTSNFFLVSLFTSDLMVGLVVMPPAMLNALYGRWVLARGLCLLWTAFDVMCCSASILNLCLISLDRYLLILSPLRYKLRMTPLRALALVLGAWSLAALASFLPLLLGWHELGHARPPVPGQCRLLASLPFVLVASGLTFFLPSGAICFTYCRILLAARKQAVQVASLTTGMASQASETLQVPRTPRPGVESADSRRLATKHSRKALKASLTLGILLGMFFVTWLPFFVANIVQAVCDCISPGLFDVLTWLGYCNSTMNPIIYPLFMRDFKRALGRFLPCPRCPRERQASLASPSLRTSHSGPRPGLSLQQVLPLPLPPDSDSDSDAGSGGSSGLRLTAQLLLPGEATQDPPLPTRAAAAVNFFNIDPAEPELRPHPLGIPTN
Sequence of h5-HT7b (P34969 1-432 limits assumed): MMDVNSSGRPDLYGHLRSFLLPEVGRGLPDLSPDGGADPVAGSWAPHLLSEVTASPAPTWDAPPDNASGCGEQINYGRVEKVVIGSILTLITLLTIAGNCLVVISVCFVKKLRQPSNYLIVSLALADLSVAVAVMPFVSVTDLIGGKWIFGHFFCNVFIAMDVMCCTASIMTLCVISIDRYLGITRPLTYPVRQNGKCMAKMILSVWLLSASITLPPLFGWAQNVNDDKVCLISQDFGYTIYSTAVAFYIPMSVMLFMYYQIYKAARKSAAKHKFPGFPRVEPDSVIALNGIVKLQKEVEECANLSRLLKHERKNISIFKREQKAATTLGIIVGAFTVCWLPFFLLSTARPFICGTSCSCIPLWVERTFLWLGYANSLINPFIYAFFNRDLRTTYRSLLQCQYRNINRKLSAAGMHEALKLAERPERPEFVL
Sequence of hD2L (P14416 whole entry): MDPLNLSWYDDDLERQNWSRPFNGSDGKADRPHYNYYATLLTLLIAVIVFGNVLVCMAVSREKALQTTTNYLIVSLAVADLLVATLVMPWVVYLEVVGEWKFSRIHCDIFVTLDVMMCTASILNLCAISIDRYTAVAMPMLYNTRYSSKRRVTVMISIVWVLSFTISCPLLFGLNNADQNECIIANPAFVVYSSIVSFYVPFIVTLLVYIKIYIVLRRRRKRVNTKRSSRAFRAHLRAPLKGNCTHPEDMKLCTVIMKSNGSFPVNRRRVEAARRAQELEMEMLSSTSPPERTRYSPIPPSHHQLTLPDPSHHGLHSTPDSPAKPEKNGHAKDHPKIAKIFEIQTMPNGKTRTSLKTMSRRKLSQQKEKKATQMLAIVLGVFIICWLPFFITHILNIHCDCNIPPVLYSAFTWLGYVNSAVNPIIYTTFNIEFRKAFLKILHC
Sequence of h5-HT2AR (P28223 whole entry, looked up): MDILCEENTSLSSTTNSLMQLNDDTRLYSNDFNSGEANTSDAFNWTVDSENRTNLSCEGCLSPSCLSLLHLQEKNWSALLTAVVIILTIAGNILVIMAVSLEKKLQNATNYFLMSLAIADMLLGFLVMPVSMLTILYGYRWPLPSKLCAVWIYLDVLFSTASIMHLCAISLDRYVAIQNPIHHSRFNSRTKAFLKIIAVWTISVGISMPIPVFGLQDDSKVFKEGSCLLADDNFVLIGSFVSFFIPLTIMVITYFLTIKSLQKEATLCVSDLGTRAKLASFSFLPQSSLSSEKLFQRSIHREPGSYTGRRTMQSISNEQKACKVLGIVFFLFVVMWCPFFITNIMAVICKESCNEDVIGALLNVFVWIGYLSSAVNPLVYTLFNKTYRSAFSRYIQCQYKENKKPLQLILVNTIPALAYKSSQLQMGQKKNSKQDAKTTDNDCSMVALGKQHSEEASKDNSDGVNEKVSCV
Sequence of h5-HT1A (P08908 whole entry): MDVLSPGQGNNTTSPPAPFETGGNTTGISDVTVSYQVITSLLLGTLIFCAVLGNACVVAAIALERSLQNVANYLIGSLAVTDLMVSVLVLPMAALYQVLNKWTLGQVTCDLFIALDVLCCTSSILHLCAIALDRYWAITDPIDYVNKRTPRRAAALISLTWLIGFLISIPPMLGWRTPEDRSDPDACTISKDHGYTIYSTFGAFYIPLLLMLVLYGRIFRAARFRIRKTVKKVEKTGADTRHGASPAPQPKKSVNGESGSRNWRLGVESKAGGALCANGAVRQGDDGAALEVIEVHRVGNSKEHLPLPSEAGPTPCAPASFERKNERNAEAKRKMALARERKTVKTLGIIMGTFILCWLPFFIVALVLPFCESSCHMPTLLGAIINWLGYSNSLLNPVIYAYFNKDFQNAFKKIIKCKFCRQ
Sequence of h5-HT3R (P46098 24-478): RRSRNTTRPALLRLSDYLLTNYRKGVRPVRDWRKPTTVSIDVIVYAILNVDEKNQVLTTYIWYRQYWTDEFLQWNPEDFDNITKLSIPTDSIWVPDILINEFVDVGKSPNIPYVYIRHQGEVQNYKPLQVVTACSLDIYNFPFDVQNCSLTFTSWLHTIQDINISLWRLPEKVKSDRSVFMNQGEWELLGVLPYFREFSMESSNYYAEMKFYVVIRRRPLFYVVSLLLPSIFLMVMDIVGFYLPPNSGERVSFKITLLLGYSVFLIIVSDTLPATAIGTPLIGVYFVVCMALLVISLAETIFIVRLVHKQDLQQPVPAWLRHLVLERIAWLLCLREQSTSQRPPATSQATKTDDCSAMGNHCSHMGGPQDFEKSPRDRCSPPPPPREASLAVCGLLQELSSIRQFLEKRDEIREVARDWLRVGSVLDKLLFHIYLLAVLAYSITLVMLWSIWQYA

## CN1CCN(c2nc3ccccc3c3[nH]ccc23)CC1 [Compound 5d, 4-(4-Methylpiperazin-1-yl)-1H-pyrrolo[3,2-c]quinoline]
h5-HT6R [1]; Kb
  Kb: > 10000 nM
5-HT3R
  functional classification at 5-HT3R: agonist
h5-HT6R [2]
  Ki: 245 nM

## c1ccc2c(c1)nc(N1CCNCC1)c1cc[nH]c12 [Compound 5e, 4-(Piperazin-1-yl)-1H-pyrrolo[3,2-c]quinoline]
h5-HT6R [1]; Kb
  Kb: > 10000 nM
5-HT3R
  functional classification at 5-HT3R: partial agonist
h5-HT6R [2]
  Ki: 757 nM

## O=S(=O)(c1cccc(Cl)c1)n1ccc2c(N3CCNCC3)nc3ccccc3c21 [Compound 18, 1-[(3-Chlorophenyl)sulfonyl]-4-(piperazin-1-yl)-1H-pyrrolo[3,2-c]quinoline dihydrochloride]
h5-HT7b
  Ki: 1790 nM
hD2L
  Ki: 1340 nM
5-HT3R; 100 nM
  antagonist effect: 11%
5-HT3R; 300 nM
  antagonist effect: 72%
h5-HT2AR
  Ki: 1670 nM
h5-HT1A
  Ki: 773 nM

## Cc1cccc(S(=O)(=O)n2ccc3c(N4CCNCC4)nc4ccccc4c32)c1 [Compound 20, 1-[(3-Methylphenyl)sulfonyl]-4-(piperazin-1-yl)-1H-pyrrolo[3,2-c]quinoline dihydrochloride]
h5-HT7b
  Ki: 4140 nM
hD2L
  Ki: 2160 nM
5-HT3R; 30 nM
  antagonist effect: 20%
5-HT3R; 100 nM
  antagonist effect: 40%
h5-HT2AR
  Ki: 4630 nM
h5-HT1A
  Ki: 760 nM

## O=S(=O)(c1ccc(F)cc1)n1ccc2c(N3CCNCC3)nc3ccccc3c21 [Compound 22, 1-[(4-Fluorophenyl)sulfonyl]-4-(piperazin-1-yl)-1H-pyrrolo[3,2-c]quinoline dihydrochloride]
h5-HT6R [1]
  antagonist effect: 72%
5-HT3R; 300 nM
  antagonist effect: 48 (300 nM) %
h5-HT6R [2]; [5]
  Ki: 18 nM

## O=S(=O)(c1ccc(C(F)(F)F)cc1)n1ccc2c(N3CCNCC3)nc3ccccc3c21 [Compound 23, 1-{[4-(Trifluoromethyl)phenyl]sulfonyl}-4-(piperazin-1-yl)-1H-pyrrolo[3,2-c]quinoline dihydrochloride]
h5-HT6R [1]
  antagonist effect: 63%
h5-HT6R [2]; [5]
  Ki: 34 nM

## CC(C)c1ccc(S(=O)(=O)n2ccc3c(N4CCNCC4)nc4ccccc4c32)cc1 [Compound 24, 1-[(4-iso-Propylphenyl)sulfonyl]-4-(piperazin-1-yl)-1H-pyrrolo[3,2-c]quinoline dihydrochloride]
h5-HT6R [1]
  antagonist effect: 65%
5-HT3R; 300 nM
  antagonist effect: 38 (300 nM) %
h5-HT6R [2]; [5]
  Ki: 14 nM

## O=S(=O)(c1ccccc1)n1ccc2c(N3CCNCC3)nccc21 [II, reference compound]
h5-HT6R [1]; Kb
  Kb: 1 nM
h5-HT6R [2]
  Ki: 6 nM

## COc1ccc(S(=O)(=O)Nc2cc(Cl)cc(Cl)c2OC)cc1N1CCNCC1 [SB399885]
Male Sprague–Dawley rats [3]; SB399885 1 mg/kg IP
  effect on spontaneous activity: neither compound affected spontaneous activity
Male Sprague–Dawley rats [3]; SB399885 9 mg/kg IP
  effect on spontaneous activity: sedative-like action
Male Sprague–Dawley rats [4]; SB399885 1 mg/kg IP, AUC post-PCP vs vehicle
  effect on PCP-induced hyperactivity: enhances PCP-induced hyperactivity compared with vehicle
Male Sprague–Dawley rats [4]; SB399885 alone IP, doses up to 9 mg/kg, AUC 1st and 2nd hour post-PCP
  effect on PCP-induced hyperactivity: did not affect PCP-induced hyperactivity

## Cc1nccn1CC1CCc2c(c3ccccc3n2C)C1=O (stereo not drawn) [ondansetron, reference compound]
h5-HT6R [1]; read-out: Kb
  Kb: 58200 nM
5-HT3R; antagonist potency, Schild analysis, guinea pig ileum
  pA2: pA2 = 7.11 ± 0.12
Male Sprague–Dawley rats [3]; ondansetron 0.5 mg/kg IP
  effect on spontaneous activity: neither compound affected spontaneous activity

## O=C1c2cccc3c2[C@H](CCC3)CN1[C@@H]1CN2CCC1CC2 [palonosetron]
h5-HT3R
  IC50: 1.7 nM
